Data reported in ChEMBL document CHEMBL4507266, “Data for DCP probe BAY-784” (2021).

Experiments:
[1] = test system: Tyrosine-protein kinase ABL1 (Homo sapiens), P00519 [T315I]; conditions: Compound concentration 1000.0 nM
[2] = test system: Tyrosine-protein kinase ABL1 (Homo sapiens), P00519 [Y253F]; conditions: Compound concentration 1000.0 nM
[3] = biological target: Tyrosine-protein kinase ABL1 (Homo sapiens) (UniProt P00519); conditions: Compound concentration 1000.0 nM
[4] = biological target: RAC-alpha serine/threonine-protein kinase (Homo sapiens) (UniProt P31749); conditions: Compound concentration 1000.0 nM
[5] = biological target: Bone morphogenetic protein receptor type-1B (Homo sapiens) (UniProt O00238); conditions: Compound concentration 1000.0 nM
[6] = biological target: Cyclin-dependent kinase 11B (Homo sapiens) (UniProt P21127); conditions: Compound concentration 1000.0 nM
[7] = biological target: Cyclin-dependent kinase 19 (Homo sapiens) (UniProt Q9BWU1); conditions: Compound concentration 1000.0 nM
[8] = biological target: Cyclin-dependent kinase 4 (Homo sapiens) (UniProt P11802); conditions: Compound concentration 1000.0 nM
[9] = biological target: Cyclin-dependent kinase 5 (Homo sapiens) (UniProt Q00535); conditions: Compound concentration 1000.0 nM
[10] = biological target: Macrophage colony-stimulating factor 1 receptor (Homo sapiens) (UniProt P07333); conditions: Compound concentration 1000.0 nM
[11] = biological target: Megakaryocyte-associated tyrosine-protein kinase (Homo sapiens) (UniProt P42679); conditions: Compound concentration 1000.0 nM
[12] = biological target: Death-associated protein kinase 3 (Homo sapiens) (UniProt O43293); conditions: Compound concentration 1000.0 nM
[13] = biological target: Serine/threonine-protein kinase DCLK2 (Homo sapiens) (UniProt Q8N568); conditions: Compound concentration 1000.0 nM
[14] = biological target: Mitogen-activated protein kinase 4 (Homo sapiens) (UniProt P31152); conditions: Compound concentration 1000.0 nM
[15] = biological target: Fibroblast growth factor receptor 2 (Homo sapiens) (UniProt P21802); conditions: Compound concentration 1000.0 nM
[16] = biological target: Vascular endothelial growth factor receptor 1 (Homo sapiens) (UniProt P17948); conditions: Compound concentration 1000.0 nM
[17] = test system: Receptor-type tyrosine-protein kinase FLT3 (Homo sapiens), P36888 [D835V]; conditions: Compound concentration 1000.0 nM
[18] = test system: Receptor-type tyrosine-protein kinase FLT3 (Homo sapiens), P36888 [K663Q]; conditions: Compound concentration 1000.0 nM
[19] = test system: Receptor-type tyrosine-protein kinase FLT3 (Homo sapiens), P36888 [N841I]; conditions: Compound concentration 1000.0 nM
[20] = biological target: Serine/threonine-protein kinase haspin (Homo sapiens) (UniProt Q8TF76); conditions: Compound concentration 1000.0 nM
[21] = biological target: Hormonally up-regulated neu tumor-associated kinase (Homo sapiens) (UniProt P57058); conditions: Compound concentration 1000.0 nM
[22] = biological target: Inhibitor of nuclear factor kappa-B kinase subunit beta (Homo sapiens) (UniProt O14920); conditions: Compound concentration 1000.0 nM
[23] = biological target: Serine/threonine-protein kinase MRCK beta (Homo sapiens) (UniProt Q9Y5S2); conditions: Compound concentration 1000.0 nM
[24] = biological target: Serine/threonine-protein kinase mTOR (Homo sapiens) (UniProt P42345); conditions: Compound concentration 1000.0 nM
[25] = biological target: Myosin-IIIb (Homo sapiens) (UniProt Q8WXR4); conditions: Compound concentration 1000.0 nM
[26] = biological target: Mitogen-activated protein kinase 13 (Homo sapiens) (UniProt O15264); conditions: Compound concentration 1000.0 nM
[27] = biological target: Cyclin-dependent kinase 15 (Homo sapiens) (UniProt Q96Q40); conditions: Compound concentration 1000.0 nM
[28] = test system: Phosphatidylinositol 4,5-bisphosphate 3-kinase catalytic subunit alpha isoform (Homo sapiens), P42336 [M1043I]; conditions: Compound concentration 1000.0 nM
[29] = test system: Phosphatidylinositol 4,5-bisphosphate 3-kinase catalytic subunit alpha isoform (Homo sapiens), P42336 [Q546K]; conditions: Compound concentration 1000.0 nM
[30] = biological target: Serine/threonine-protein kinase PknB (Mycobacterium tuberculosis) (UniProt P9WI81); conditions: Compound concentration 1000.0 nM
[31] = biological target: Serine/threonine-protein kinase PLK3 (Homo sapiens) (UniProt Q9H4B4); conditions: Compound concentration 1000.0 nM
[32] = biological target: Protein kinase C eta type (Homo sapiens) (UniProt P24723); conditions: Compound concentration 1000.0 nM
[33] = biological target: Receptor-interacting serine/threonine-protein kinase 1 (Homo sapiens) (UniProt Q13546); conditions: Compound concentration 1000.0 nM
[34] = biological target: Rho-associated protein kinase 2 (Homo sapiens) (UniProt O75116); conditions: Compound concentration 1000.0 nM
[35] = biological target: STE20-like serine/threonine-protein kinase (Homo sapiens) (UniProt Q9H2G2); conditions: Compound concentration 1000.0 nM
[36] = biological target: Serine/threonine-protein kinase 33 (Homo sapiens) (UniProt Q9BYT3); conditions: Compound concentration 1000.0 nM
[37] = biological target: 5-hydroxytryptamine receptor 1E (Homo sapiens) (UniProt P28566); conditions: Compound concentration 10.0 uM
[38] = biological target: T1, 5-hydroxytryptamine receptor 2C (Homo sapiens) (UniProt P28335); conditions: Compound concentration 10.0 uM
T1 sequence (whole entry): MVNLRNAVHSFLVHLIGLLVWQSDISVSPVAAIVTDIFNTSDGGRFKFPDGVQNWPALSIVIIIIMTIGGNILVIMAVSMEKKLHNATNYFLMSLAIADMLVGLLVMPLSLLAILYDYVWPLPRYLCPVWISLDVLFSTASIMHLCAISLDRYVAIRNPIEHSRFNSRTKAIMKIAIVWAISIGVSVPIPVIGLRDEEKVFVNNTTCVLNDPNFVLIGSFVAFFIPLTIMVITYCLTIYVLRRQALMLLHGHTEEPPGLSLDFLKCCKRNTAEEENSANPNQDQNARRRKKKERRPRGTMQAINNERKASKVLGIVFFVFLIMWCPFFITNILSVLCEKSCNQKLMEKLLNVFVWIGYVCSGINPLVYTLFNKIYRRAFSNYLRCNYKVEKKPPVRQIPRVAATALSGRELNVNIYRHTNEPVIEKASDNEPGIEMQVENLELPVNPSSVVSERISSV

[39] = biological target: Histamine H1 receptor (Homo sapiens) (UniProt P35367); conditions: Compound concentration 10.0 uM

Sequence of Macrophage colony-stimulating factor 1 receptor (Homo sapiens) (P07333 whole entry): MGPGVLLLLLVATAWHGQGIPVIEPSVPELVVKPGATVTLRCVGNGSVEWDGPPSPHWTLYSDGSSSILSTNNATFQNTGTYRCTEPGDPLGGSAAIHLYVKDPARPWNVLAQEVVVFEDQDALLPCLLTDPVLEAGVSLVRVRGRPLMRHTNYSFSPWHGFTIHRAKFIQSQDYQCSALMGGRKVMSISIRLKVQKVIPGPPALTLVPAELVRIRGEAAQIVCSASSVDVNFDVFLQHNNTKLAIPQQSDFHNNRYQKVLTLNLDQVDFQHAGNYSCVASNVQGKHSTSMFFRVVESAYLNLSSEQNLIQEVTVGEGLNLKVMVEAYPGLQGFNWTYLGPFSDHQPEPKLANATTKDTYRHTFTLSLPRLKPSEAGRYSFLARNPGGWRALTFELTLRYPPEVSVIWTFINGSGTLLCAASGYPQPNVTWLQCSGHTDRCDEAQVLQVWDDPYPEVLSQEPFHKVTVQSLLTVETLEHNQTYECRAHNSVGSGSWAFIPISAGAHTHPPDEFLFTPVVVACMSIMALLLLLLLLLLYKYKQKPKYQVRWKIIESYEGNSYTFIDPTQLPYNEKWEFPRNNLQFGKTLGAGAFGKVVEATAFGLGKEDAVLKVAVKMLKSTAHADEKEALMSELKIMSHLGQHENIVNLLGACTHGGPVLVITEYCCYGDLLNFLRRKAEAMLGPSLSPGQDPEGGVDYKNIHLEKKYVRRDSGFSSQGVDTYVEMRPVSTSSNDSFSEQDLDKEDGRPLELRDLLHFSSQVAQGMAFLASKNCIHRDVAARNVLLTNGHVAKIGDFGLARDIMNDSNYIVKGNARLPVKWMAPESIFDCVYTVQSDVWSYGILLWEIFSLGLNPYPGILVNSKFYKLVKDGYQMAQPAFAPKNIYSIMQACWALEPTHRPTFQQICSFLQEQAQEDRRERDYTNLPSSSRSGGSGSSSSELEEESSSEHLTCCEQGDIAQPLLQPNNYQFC
Sequence of STE20-like serine/threonine-protein kinase (Homo sapiens) (Q9H2G2 whole entry, looked up): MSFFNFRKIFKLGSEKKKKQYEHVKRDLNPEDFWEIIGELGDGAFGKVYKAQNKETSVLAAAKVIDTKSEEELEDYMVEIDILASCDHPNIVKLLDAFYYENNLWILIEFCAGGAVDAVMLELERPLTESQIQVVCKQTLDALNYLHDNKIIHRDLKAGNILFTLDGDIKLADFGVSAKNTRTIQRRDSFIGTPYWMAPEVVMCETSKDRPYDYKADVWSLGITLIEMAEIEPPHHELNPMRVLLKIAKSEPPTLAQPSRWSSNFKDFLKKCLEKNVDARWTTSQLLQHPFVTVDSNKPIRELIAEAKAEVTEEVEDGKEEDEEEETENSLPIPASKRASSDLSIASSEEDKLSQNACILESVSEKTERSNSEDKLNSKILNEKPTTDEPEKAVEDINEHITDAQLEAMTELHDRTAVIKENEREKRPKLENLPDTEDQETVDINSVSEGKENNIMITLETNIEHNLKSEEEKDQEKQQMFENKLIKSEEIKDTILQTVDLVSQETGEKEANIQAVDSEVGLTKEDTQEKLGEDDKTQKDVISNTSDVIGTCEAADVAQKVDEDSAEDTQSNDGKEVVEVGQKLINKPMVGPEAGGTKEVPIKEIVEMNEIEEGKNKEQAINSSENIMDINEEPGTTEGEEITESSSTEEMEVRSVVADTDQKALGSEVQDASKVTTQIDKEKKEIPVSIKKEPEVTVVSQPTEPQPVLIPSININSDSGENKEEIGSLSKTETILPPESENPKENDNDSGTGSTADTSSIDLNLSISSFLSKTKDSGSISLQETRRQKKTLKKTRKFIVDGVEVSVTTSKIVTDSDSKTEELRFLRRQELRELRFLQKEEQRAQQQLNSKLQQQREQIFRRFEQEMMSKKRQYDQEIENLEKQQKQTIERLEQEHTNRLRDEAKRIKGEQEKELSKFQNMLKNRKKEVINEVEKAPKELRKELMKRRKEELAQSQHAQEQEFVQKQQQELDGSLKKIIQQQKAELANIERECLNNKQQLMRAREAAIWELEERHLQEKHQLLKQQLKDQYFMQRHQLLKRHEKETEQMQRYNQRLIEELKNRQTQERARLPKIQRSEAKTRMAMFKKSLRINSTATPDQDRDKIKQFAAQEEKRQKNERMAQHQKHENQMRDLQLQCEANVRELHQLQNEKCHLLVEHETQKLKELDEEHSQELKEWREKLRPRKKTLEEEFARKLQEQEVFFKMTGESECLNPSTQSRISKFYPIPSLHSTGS
Sequence of Protein kinase C eta type (Homo sapiens) (P24723 whole entry): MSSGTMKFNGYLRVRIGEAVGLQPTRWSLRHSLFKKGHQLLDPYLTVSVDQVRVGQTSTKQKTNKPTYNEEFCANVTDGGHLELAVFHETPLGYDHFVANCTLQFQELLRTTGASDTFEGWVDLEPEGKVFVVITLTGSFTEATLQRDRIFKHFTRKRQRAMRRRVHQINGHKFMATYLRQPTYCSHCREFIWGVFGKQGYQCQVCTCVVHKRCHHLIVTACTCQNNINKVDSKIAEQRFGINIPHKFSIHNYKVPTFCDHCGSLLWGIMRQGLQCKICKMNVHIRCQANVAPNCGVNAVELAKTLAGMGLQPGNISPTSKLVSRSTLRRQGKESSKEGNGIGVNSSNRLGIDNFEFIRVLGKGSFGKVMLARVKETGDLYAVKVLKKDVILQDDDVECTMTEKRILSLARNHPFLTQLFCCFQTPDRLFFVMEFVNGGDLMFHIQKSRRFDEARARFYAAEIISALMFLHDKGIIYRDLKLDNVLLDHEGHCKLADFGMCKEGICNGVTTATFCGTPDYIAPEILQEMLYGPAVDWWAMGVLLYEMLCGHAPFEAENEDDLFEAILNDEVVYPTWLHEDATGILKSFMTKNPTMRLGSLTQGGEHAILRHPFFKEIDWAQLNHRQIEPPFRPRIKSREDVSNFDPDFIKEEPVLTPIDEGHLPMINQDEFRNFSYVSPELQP
Sequence of Fibroblast growth factor receptor 2 (Homo sapiens) (P21802 22-821 limits assumed): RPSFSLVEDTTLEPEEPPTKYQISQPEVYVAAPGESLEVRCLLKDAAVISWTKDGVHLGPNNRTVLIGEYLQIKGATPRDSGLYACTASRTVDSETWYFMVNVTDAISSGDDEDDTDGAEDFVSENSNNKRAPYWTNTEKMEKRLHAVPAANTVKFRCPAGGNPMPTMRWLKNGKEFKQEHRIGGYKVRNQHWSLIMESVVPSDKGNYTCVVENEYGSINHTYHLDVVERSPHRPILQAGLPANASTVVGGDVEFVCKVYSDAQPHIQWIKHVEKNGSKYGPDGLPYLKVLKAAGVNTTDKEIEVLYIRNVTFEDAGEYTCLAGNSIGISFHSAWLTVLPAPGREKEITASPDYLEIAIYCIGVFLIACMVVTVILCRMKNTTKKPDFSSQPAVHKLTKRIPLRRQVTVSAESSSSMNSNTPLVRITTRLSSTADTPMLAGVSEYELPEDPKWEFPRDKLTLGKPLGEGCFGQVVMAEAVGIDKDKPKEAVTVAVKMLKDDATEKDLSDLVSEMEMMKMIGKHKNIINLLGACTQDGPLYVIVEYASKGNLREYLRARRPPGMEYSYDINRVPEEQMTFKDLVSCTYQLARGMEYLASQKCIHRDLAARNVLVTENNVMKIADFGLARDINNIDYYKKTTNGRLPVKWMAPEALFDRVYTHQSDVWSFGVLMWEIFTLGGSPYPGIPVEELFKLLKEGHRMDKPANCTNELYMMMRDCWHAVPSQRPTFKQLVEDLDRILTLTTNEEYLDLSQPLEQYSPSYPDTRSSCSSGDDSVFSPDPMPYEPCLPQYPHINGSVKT
Sequence of Bone morphogenetic protein receptor type-1B (Homo sapiens) (O00238 whole entry): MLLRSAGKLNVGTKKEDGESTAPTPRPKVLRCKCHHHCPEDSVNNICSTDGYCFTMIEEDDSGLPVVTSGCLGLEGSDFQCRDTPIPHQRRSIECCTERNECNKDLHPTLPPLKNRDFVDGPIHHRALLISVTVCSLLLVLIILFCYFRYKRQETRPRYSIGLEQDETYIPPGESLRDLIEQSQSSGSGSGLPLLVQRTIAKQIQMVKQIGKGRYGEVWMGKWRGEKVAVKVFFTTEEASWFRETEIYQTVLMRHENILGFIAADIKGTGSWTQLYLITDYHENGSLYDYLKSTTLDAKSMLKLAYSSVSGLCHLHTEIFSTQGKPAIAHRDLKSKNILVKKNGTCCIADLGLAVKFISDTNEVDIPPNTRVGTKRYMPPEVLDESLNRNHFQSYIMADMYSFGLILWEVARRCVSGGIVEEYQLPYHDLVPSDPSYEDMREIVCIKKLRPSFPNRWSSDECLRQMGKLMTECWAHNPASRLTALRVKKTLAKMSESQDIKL
Sequence of RAC-alpha serine/threonine-protein kinase (Homo sapiens) (P31749 whole entry): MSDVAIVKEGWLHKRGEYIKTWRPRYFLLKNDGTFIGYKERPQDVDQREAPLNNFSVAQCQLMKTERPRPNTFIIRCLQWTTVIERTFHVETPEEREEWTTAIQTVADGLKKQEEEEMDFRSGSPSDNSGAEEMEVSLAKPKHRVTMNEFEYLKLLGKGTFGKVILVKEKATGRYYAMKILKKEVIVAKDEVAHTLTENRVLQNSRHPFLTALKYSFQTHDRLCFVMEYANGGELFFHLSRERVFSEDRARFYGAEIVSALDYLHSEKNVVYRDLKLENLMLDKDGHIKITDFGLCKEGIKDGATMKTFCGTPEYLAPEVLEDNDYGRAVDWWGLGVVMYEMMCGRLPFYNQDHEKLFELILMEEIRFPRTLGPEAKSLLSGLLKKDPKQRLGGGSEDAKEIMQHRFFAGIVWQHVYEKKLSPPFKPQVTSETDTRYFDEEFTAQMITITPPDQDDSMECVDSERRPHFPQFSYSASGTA
Sequence of Cyclin-dependent kinase 5 (Homo sapiens) (Q00535 whole entry, looked up): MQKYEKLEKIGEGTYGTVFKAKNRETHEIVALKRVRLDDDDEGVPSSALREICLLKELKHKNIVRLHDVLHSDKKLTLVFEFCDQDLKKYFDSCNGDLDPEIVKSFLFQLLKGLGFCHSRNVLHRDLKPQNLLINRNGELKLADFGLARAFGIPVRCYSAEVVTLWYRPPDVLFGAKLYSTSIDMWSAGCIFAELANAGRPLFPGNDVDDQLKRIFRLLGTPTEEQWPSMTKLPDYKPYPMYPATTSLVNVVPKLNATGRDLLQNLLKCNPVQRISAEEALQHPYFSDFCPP

SMILES | residual activity [1] [%] | residual activity [2] [%] | residual activity [3] [%] | residual activity [4] [%] | residual activity [5] [%] | residual activity [6] [%] | residual activity [7] [%] | residual activity [8] [%] | residual activity [9] [%] | residual activity [10] [%] | residual activity [11] [%] | residual activity [12] [%] | residual activity [13] [%] | residual activity [14] [%] | residual activity [15] [%] | residual activity [16] [%] | residual activity [17] [%] | residual activity [18] [%] | residual activity [19] [%] | residual activity [20] [%] | further results
O=C(NCc1ncc(C(F)(F)F)cc1Cl)c1ccc2c(c1)C1(CCS(=O)(=O)CC1)[C@@H](C1CC1)N2S(=O)(=O)c1ccc(F)cc1 [BAY-786] | 84 | 100 | 86 | 94 | 85 | 100 | 100 | 88 | 89 | 87 | 74 | 89 | 100 | 89 | 98 | 82 | 76 | 100 | 78 | 77 | residual activity [21]: 85%; residual activity [22]: 86%; residual activity [23]: 100%; residual activity [24]: 92%; residual activity [25]: 100%; residual activity [26]: 86%; residual activity [27]: 69%; residual activity [28]: 56%; residual activity [29]: 72%; residual activity [30]: 84%; residual activity [31]: 82%; residual activity [32]: 96%; residual activity [33]: 30%; residual activity [34]: 93%; residual activity [35]: 100%; residual activity [36]: 86%; inhibition [37]: -1.55%; inhibition [38]: 16.9%; inhibition [39]: 8.01%
O=C(NCc1ncc(C(F)(F)F)cc1Cl)c1ccc2c(c1)C1(CCS(=O)(=O)CC1)[C@H](C1CC1)N2S(=O)(=O)c1ccc(F)cc1 [BAY-784] | 90 | 85 | 71 | 96 | 93 | 100 | 100 | 88 | 0 | 100 | 73 | 90 | 100 | 91 | 86 | 98 | 70 | 100 | 58 | 87 | residual activity [21]: 84%; residual activity [22]: 92%; residual activity [23]: 100%; residual activity [24]: 100%; residual activity [25]: 74%; residual activity [26]: 99%; residual activity [27]: 100%; residual activity [28]: 93%; residual activity [29]: 76%; residual activity [30]: 96%; residual activity [31]: 92%; residual activity [32]: 100%; residual activity [33]: 100%; residual activity [34]: 95%; residual activity [35]: 100%; residual activity [36]: 100%; inhibition [37]: 10.4%; inhibition [38]: 9.65%; inhibition [39]: 24.6%
